# Results reported in patent publication US12544419B2, “Targeted amatoxin conjugate for the treatment of solid tumors” (Heidelberg Pharma Research GmbH, priority 2018, dated 2026).
# How the values were obtained:
# RNA polymerase III = RNA polymerase III (Homo sapiens, UniProt O14802+Q9NW08); conditions: cited from earlier work
# RNA polymerase I = RNA polymerase I (Homo sapiens, UniProt O95602+Q9H9Y6); conditions: cited from earlier work
# LNCaP cells = assay: Cell viability assay (BrdU incorporation), LNCaP; type: cell-based; conditions: conjugated to anti-PSMA antibody h3/F11 D265C
# Method: (§1) Cytotoxic activity of anti PSMA and anti-Her2 amatoxin conjugates was evaluated in vitro with target-positive tumor cell lines and the chemiluminescent BrdU incorporation assay (Roche Diagnostics). Cell viability was determined after 96 h incubation with different concentrations of conjugates at 37° C. and 5% CO2 by measurement of fixed and permeabilized cells with an anti-BrdU-HRP antibody in a BMG Labtech Optima microplate reader. EC50 value of dose-response curve was calculated by Graphpad Prism 4.0 software.
# LNCaP is a solid prostate adenocarcinoma cell line derived from a left supraclavicular lymph node metastasis.
# Raji cells = assay: CellTiter-Glo 2.0 cell viability assay, Raji; type: cell-based, human; conditions: conjugated to antiCD19 antibody chiBCE19 D265C
# Method: Cytotoxic activity of anti CD19 amatoxin conjugates on target positive cells was assessed by CellTiter-Glo 2.0 Luminescent Cell Viability Assay (Promega, Madison, WI) in 96-well tissue culture plates. Cell viability was determined after 96 h incubation with different concentrations of conjugates at 37° C. and 5% CO2. Data analysis was performed with GraphPad Prism 7 (GraphPad Software, Inc, La Jolla, CA) software to plot curve fits and perform statistical analyses. Nonlinear variable slope curve-fits were plotted as log[ADC] vs. Response and EC50 values were generated.
# Raji is a cell line derived from Burkitt's lymphoma.
# [1] = test system: Jimt-1 breast cancer cells (s.c. xenograft); assay: Jimt-1 xenograft model, tumor volume; type: in vivo, NMRI nude mice; conditions: conjugated to Trastuzumab D265C; JIMT xenografts; single intravenous dose
# Method: (§2) Jimt-1 xenograft model: Female NMRI nude mice were inoculated with 5×10^6 Jimt-1 breast cancer cells per mouse subcutaneously in the right flank. At a mean tumor vol. of ˜120 mm^3, animals were allocated to groups on day 0. On the same day the animals received a single intravenous dose of amanitin based anti-Her2 antibody drug conjugates (ADCs) Tumor volume and body weight were determined twice per week.
# (§3) Tumor growth was monitored by caliper measurement. Tumor size was calculated according to the equation: volume=W^2×L×0.5 (L=length and W=perpendicular width of the tumor, L>W).
# [2] = test system: Raji Burkitt's lymphoma cells (s.c. xenograft); assay: Raji s.c. xenograft model (solid tumor), tumor volume; type: in vivo, CB17 SCID mice; conditions: for Efficacy Raji sc: anti-CD19 conjugate, grade, key not given; for tumor shrinking activity (FIG. 7): conjugated to chiBCE19 D265C, Raji cells injected s.c., single intravenous dose
# Method: as §2, with “Raji” for “Jimt-1”, “CB17 SCID” for “NMRI nude”, “2.5×10^6 Raji Burkitt's lymphoma” for “5×10^6 Jimt-1 breast cancer”, “˜80” for “˜120”, “anti-CD19” for “anti-Her2”
# as §3
# Growth inhibition experiments were then carried out with tumor xenografts of Raji cells injected into mice s.c. This approach leads to tumors that mimic the phenotype of a solid tumor.
# JIMT-1 cells = assay: Cell viability assay (BrdU incorporation), JIMT-1; type: cell-based; conditions: conjugated to Trastuzumab D265C
# Method: as §1
# JIMT-1 is a solid cancer cell line derived from a breast ductal adenocarcinoma.
# [3] = test system: LNCap prostate carcinoma cells (s.c. xenograft); assay: LnCap xenograft model, tumor volume; type: in vivo, CB17 SCID mice; conditions: conjugated to anti-PSMA antibody h3/F11 D265C; LnCap xenografts; single intravenous dose
# Method: as §2, with “LnCap” for “Jimt-1”, “Male CB17 SCID” for “Female NMRI nude”, “2.5×10^6 LNCap prostate carcinoma” for “5×10^6 Jimt-1 breast cancer”, “˜150” for “˜120”, “anti-PSMA” for “anti-Her2”
# as §3
# [4] = Highest non-severely toxic dose, DIG (Digoxigenin antibody) conjugates, Cyno; conditions: Digoxigenin antibody conjugate (no cross reaction with host targets); Cynomolgus monkey
# [5] = test system: Raji Luc cells (i.v. xenograft); assay: Intravenous Raji-Luc xenograft (liquid tumor), survival; type: in vivo, CB17 SCID mice; conditions: conjugated to chiBCE19 D265C; i.v. injected Raji Luc cells; single i.v. dose
# Method: (§4) Intravenous Nalm-6 xenograft model: Female CB17 SCID mice were inoculated with 2.5×10^6 Raji Burkitt's lymphoma cells per mouse into the tail vein. Animals were allocated to groups on day 0. On day 3 after tumor cell injection, the animals received a single intravenous dose of amanitin based anti-CD19 antibody drug conjugates (ADCs). Body weight was determined twice per week. Survival was monitored daily.
# as §4, with “[…]” for “Nalm-6”, “5×10^6 Nalm-6 B Cell precursor leukemia” for “2.5×10^6 Raji Burkitt's lymphoma”
# (§5) Survival rates were then investigated with tumor xenografts of Raji cells (with or without transfected luciferase) or Nalm-6 cells obtained by i.v. administration of the respective cells.
# (§6) Raji is a cell line derived from Burkitt's lymphoma, Nalm-6 is a cell line derived from acute lymphoblastic leukemia (ALL). Results are shown in the Kaplan Meier curves of FIG. 6.
# (§7) Survival experiments were carried out with i.v. injected Raji Luc (FIG. 6A) or NALM6 (FIG. 6B) cells.
# [6] = test system: Nalm-6 cells (i.v. xenograft); assay: Intravenous Nalm-6 xenograft model (liquid tumor), survival; type: in vivo, CB17 SCID mice; conditions: conjugated to chiBCE19 D265C; i.v. injected NALM6 cells; single i.v. dose
# Method: as §4
# as §4, with “[…]” for “Nalm-6”, “5×10^6 Nalm-6 B Cell precursor leukemia” for “2.5×10^6 Raji Burkitt's lymphoma”
# as §5, §6, §7
Compound,binding to RNA polymerase III (RNA polymerase III),binding to RNA polymerase I (RNA polymerase I),potency in cell viability assay (FIG. 3) (LNCaP cells),potency in cell viability assay (FIG. 5) (Raji cells),tumor shrinking activity (FIG. 2) [1],Efficacy Raji sc [2],tumor shrinking activity (FIG. 7) [2],potency in cell viability assay (FIG. 1) (JIMT-1 cells),tumor shrinking activity (FIG. 4) [3],HNSTD DIG Cyno [4] [mg/kg],potency in survival experiment (FIG. 6A) [5],potency in survival experiment (FIG. 6B) [6]
α-amanitin [Alpha-amanitin],only slightly binds,no binding,,,,,,,,,,
CC[C@H](C)[C@@H]1NC(=O)CNC(=O)[C@@H]2Cc3c([nH]c4cc(O)ccc34)SCC(NC(=O)CNC1=O)C(=O)N[C@@H](CC(=O)NCc1ccc(NC(=O)[C@H](C)NC(=O)C(NC(=O)CCN3C(=O)C=CC3=O)C(C)C)cc1)C(=O)CN1CC(O)C[C@H]1C(=O)N[C@@H]([C@@H](C)[C@@H](O)CO)C(=O)N2 (stereo partly shown) [30.2347],,,comparable potency,comparable potency,strong tumor shrinking activity,∘,strong tumor shrinking activity,comparable potency,strong tumor shrinking activity,<5,,
"CC[C@H](C)[C@@H]1NC(=O)CNC(=O)[C@@H]2Cc3c([nH]c4ccccc34)SCC(NC(=O)CNC1=O)C(=O)N[C@@H](CC(=O)NCc1ccc(NC(=O)[C@H](C)NC(=O)C(NC(=O)CCN3C(=O)C=CC3=O)C(C)C)cc1)C(=O)CN1CC(O)C[C@H]1C(=O)N[C@@H]([C@@H](C)[C@@H](O)CO)C(=O)N2 (stereo partly shown) [30.2115, reference compound]",,,strongly decreased potency,comparable potency,significantly decreased tumor shrinking activity,,significantly decreased tumor shrinking activity,slightly decreased potency,significantly decreased tumor shrinking activity,<7.5,,
"CC[C@H](C)[C@@H]1NC(=O)CNC(=O)[C@@H]2Cc3c([nH]c4ccccc34)[S+]([O-])CC(NC(=O)CNC1=O)C(=O)N[C@@H](CC(=O)NCc1ccc(NC(=O)[C@H](C)NC(=O)[C@@H](NC(=O)CCN3C(=O)C=CC3=O)C(C)C)cc1)C(=O)CN1CC(O)C[C@H]1C(=O)N[C@@H]([C@@H](C)[C@@H](O)CO)C(=O)N2 (stereo partly shown) [30.2183, reference compound]",,,strongly decreased potency,comparable potency,significantly decreased tumor shrinking activity,,significantly decreased tumor shrinking activity,strongly decreased potency,significantly decreased tumor shrinking activity,,,
CC[C@H](C)[C@@H]1NC(=O)CNC(=O)[C@@H]2Cc3c([nH]c4cc(O)ccc34)[S@+]([O-])CC(NC(=O)CNC1=O)C(=O)N[C@@H](CC(=O)NCc1ccc(NC(=O)[C@H](C)NC(=O)C(NC(=O)CCN3C(=O)C=CC3=O)C(C)C)cc1)C(=O)CN1CC(O)C[C@H]1C(=O)N[C@@H]([C@@H](C)[C@@H](O)CO)C(=O)N2 (stereo partly shown) [30.2060],,,comparable potency,comparable potency,strong tumor shrinking activity,∘,strong tumor shrinking activity,comparable potency,strong tumor shrinking activity,<7.5,,
CC[C@H](C)[C@@H]1NC(=O)CNC(=O)[C@@H]2Cc3c([nH]c4cc(OCc5ccc(NC(=O)[C@H](C)NC(=O)[C@@H](NC(=O)CCN6C(=O)C=CC6=O)C(C)C)cc5)ccc34)SCC(NC(=O)CNC1=O)C(=O)N[C@@H](CC(N)=O)C(=O)CN1CC(O)C[C@H]1C(=O)N[C@@H]([C@@H](C)[C@@H](O)CO)C(=O)N2 (stereo partly shown) [30.2371],,,comparable potency,comparable potency,strong tumor shrinking activity,∘,strong tumor shrinking activity,comparable potency,strong tumor shrinking activity,>2,,
CC[C@H](C)[C@@H]1NC(=O)CNC(=O)[C@@H]2Cc3c([nH]c4cc(OCc5ccc(NC(=O)[C@H](C)NC(=O)[C@@H](NC(=O)CCN6C(=O)C=CC6=O)C(C)C)cc5)ccc34)[S@+]([O-])CC(NC(=O)CNC1=O)C(=O)N[C@@H](CC(N)=O)C(=O)CN1CC(O)C[C@H]1C(=O)N[C@@H]([C@@H](C)[C@@H](O)CO)C(=O)N2 (stereo partly shown) [30.1699],,,comparable potency,comparable potency,strong tumor shrinking activity,∘,strong tumor shrinking activity,comparable potency,strong tumor shrinking activity,>3,lower potency than the Trp variant 30.2115,lower potency than the Trp variant 30.2115
